Results taken from PMC7144195, “Synthesis, antitumor activity, and molecular docking study of 2-cyclopentyloxyanisole derivatives: mechanistic study of enzyme inhibition” (Journal of Enzyme Inhibition and Medicinal Chemistry, 2020).
Where two headings read alike, the source gives them in different places.

Experiments:
HeLa cell line = assay: In vitro antitumor MTT assay, HeLa; type: cell-based
Method: (§1) The antitumor activity was performed by using the tetrazolium salt 3-(4,5-dimethyl-2-thiazolyl)-2,5-diphenyl-2H-tetrazolium bromide (MTT) assay in accordance with an established method.
(§2) Compounds 3a–c, 4a,b, 5a,b, 6a,b, 7a–e, 8, 9a–c, 10, 11, 12a–c, 13, and 14 were screened for their in vitro antitumor activity by using the standard 3-(4,5-dimethylthiazol-2-yl)-2,5-diphenyltetrazolium bromide (MTT) assay against five human cancers: HePG2, HCT-116, MCF-7, PC3, and HeLa cell lines. […].

HePG2 cell line = assay: In vitro antitumor MTT assay, HePG2; type: cell-based
Method: as §1, §2

HCT-116 cell line = assay: In vitro antitumor MTT assay, HCT-116; type: cell-based
Method: (§3) The antitumor activity was performed by using the tetrazolium salt 3-(4,5-dimethyl-2-thiazolyl)-2,5-diphenyl-2H-tetrazolium bromide (MTT) assay in accordance with an established method[39].

MCF-7 cell line = assay: In vitro antitumor MTT assay, MCF-7; type: cell-based
Method: as §3

PC3 cell line = assay: In vitro antitumor MTT assay, PC3; type: cell-based
Method: as §3

TNF-α = TNF-α inhibition assay (human-specific sandwich ELISA); type: biochemical; details: read-out: IC50 (µM) TNFα inhibition
Method: The concentration of TNF-α was measured by human-specific sandwich enzyme-linked immunosorbent assay (ELISA) in accordance with the manufacturer’s instructions (no. 589201, Cayman Chemical, Ann Arbour, MI)[43]^,[44].
TNF-α has been reported as a target for cancer treatment; presently, TNF antagonists are under clinical investigation in phase I and II trials as single agents for cancer therapy. […].

[1] = test system: HePG2, HCT-116, MCF-7, PC3, and HeLa cell lines; assay: In vitro antitumor MTT assay, panel of five human cancer cell lines (text summaries); type: cell-based; details: for IC50: read-out: IC50, antitumor activity, range over the tested cancer cell lines
Method: as §1, §2

[2] = Homo sapiens, read-out: IC50 (µM) HeLa
[3] = Homo sapiens, HepG2, read-out: IC50 (µM) HePG2
[4] = Homo sapiens, HCT-116, read-out: IC50 (µM) HCT-116
[5] = Homo sapiens, MCF7, read-out: IC50 (µM) MCF-7
[6] = Homo sapiens, PC-3, read-out: IC50 (µM) PC3
[7] = Homo sapiens; read-out: IC50 (µM) HeLa
[8] = Homo sapiens, HepG2; read-out: IC50 (µM) HePG2
[9] = Homo sapiens, HCT-116; read-out: IC50 (µM) HCT-116
[10] = Homo sapiens, MCF7; read-out: IC50 (µM) MCF-7
[11] = Homo sapiens, PC-3; read-out: IC50 (µM) PC3
[12] = Homo sapiens, range over (all or some of) HePG2, HCT-116, MCF-7, PC3, HeLa

Structure (SMILES)	IC50 (HeLa cell line; [2])	IC50 (HePG2 cell line; [3])	IC50 (HCT-116 cell line; [4])	IC50 (MCF-7 cell line; [5])	IC50 (PC3 cell line; [6])	IC50 (TNF-α)	IC50 ([1]; Homo sapiens)	IC50 (HeLa cell line; [7])	IC50 (HePG2 cell line; [8])	IC50 (HCT-116 cell line; [9])	IC50 (MCF-7 cell line; [10])	IC50 (PC3 cell line; [11])	IC50 [1, 12]	melting point	antitumor activity against the tested cancer cell lines (in words) ([1]; all tested cancer cell lines)	IC50 ([1]; range over (all or some of) HePG2, HCT-116, MCF-7, PC3, HeLa)
Cc1ccc(-c2cc(C(F)(F)F)nn2-c2ccc(S(N)(=O)=O)cc2)cc1 [Celecoxib, celecoxib, reference compound]	36.1 ± 2.8 µM	25.6 ± 2.3 µM	29.5 ± 2.1 µM	31.3 ± 2.5 µM	30.7 ± 2.7 µM	6.44 µM	25.6 to 36.1 µM	–	–	–	–	–	–	–	–	–
COc1ccc(C2NC(=O)NC3=C2C(=O)CC(C)(C)C3)cc1OC1CCCC1 (stereo not drawn) [Compound 6a, 4-(3-(Cyclopentyloxy)-4-methoxyphenyl)-7,7-dimethyl-4,6,7,8-tetrahydroquinazoline-2,5(1H,3H)-dione]	–	–	–	–	–	–	–	19.1 ± 1.7 µM	18.5 ± 1.7 µM	30.5 ± 1.8 µM	28.6 ± 1.6 µM	27.4 ± 2.1 µM	18.5 to 30.5 µM	230 to 232 °C	–	–
COc1ccc(C2NC(=S)NC3=C2C(=O)CC(C)(C)C3)cc1OC1CCCC1 (stereo not drawn) [Compound 6b, 4-(3-(Cyclopentyloxy)-4-methoxyphenyl)-7,7-dimethyl-2-thioxo-2,3,4,6,7,8-hexahydroquinazolin-5(1H)-one]	–	–	–	–	–	–	–	13.5 ± 1.4 µM	16.1 ± 1.4 µM	25.4 ± 1.7 µM	10.3 ± 1.1 µM	17.9 ± 1.6 µM	10.3 to 25.4 µM	233 to 235 °C	–	–
COc1ccc(-c2nc3c4ccccc4c4ccccc4c3[nH]2)cc1OC1CCCC1 [Compound 7a, 2-(3-(Cyclopentyloxy)-4-methoxyphenyl)-1H-phenanthro[9,10-d]imidazole]	77.6 ± 4.6 µM	78.2 ± 4.4 µM	90.3 ± 4.9 µM	89.8 ± 4.3 µM	> 100 µM	–	53.2 to 90.3 µM	–	–	–	–	–	–	290 to 292 °C	–	–
COc1ccc(-c2nc3c4ccccc4c4ccccc4c3n2-c2ccc(C)cc2)cc1OC1CCCC1 [Compound 7c, 2-(3-(Cyclopentyloxy)-4-methoxyphenyl)-1-(4-methylphenyl)-1H-phenanthro[9,10-d]imidazole]	53.2 ± 3.7 µM	57.1 ± 3.9 µM	81.2 ± 4.2 µM	65.3 ± 3.4 µM	68.1 ± 3.5 µM	–	53.2 to 90.3 µM	–	–	–	–	–	–	291 to 294 °C	–	–
COc1ccc(-c2nc3c4ccccc4c4ccccc4c3n2-c2ccc(F)cc2)cc1OC1CCCC1 [Compound 7d, 2-(3-(Cyclopentyloxy)-4-methoxyphenyl)-1-(4-fluorophenyl)-1H-phenanthro[9,10-d]imidazole]	> 100 µM	> 100 µM	> 100 µM	> 100 µM	> 100 µM	–	–	–	–	–	–	–	–	290 to 292 °C	no antitumor activity	–
COc1ccc(-c2nc3c4ccccc4c4ccccc4c3n2-c2ccc(Cl)cc2)cc1OC1CCCC1 [Compound 7e, 2-(3-(Cyclopentyloxy)-4-methoxyphenyl)-1-(4-chlorophenyl)-1H-phenanthro[9,10-d]imidazole]	38.1 ± 2.5 µM	29.9 ± 2.1 µM	44.8 ± 2.3 µM	42.4 ± 2.2 µM	47 ± 2.7 µM	–	29.8 to 47 µM	–	–	–	–	–	–	294 to 296 °C	–	–
COc1ccc(C2C3=C(CC(C)(C)CC3=O)NC3=C2C(=O)CC(C)(C)C3)cc1OC1CCCC1 [Compound 8, 9-(3-(Cyclopentyloxy)-4-methoxyphenyl)-3,3,6,6-tetramethyl-3,4,6,7,9,10-hexahydroacridine-1,8(2H,5H)-dione]	–	–	–	–	–	–	–	43.5 ± 2.9 µM	41.8 ± 3 µM	70.5 ± 3.5 µM	60.5 ± 2.8 µM	55.8 ± 3.2 µM	29.8 to 47 µM	286 to 287 °C	–	41.8 to 70.5 µM
COc1ccc(C(=S)N2CCOCC2)cc1OC1CCCC1 [Compound 9a, (3-(Cyclopentyloxy)-4-methoxyphenyl)(morpholino)methanethione]	–	–	–	–	–	–	–	37.5 ± 2.5 µM	32.9 ± 2.3 µM	48.1 ± 2.4 µM	35.2 ± 1.9 µM	29.2 ± 2.3 µM	29.2 to 48.1 µM	190 to 192 °C	–	–
COc1ccc(C(=S)N2CCCCC2)cc1OC1CCCC1 [Compound 9b, (3-(Cyclopentyloxy)-4-methoxyphenyl)(piperidin-1-yl)methanethione]	–	–	–	–	–	–	–	28.4 ± 2.3 µM	24.9 ± 1.9 µM	39.1 ± 2.2 µM	37.1 ± 2 µM	31.5 ± 2.4 µM	24.9 to 39.1 µM	193 to 195 °C	–	–
COc1ccc(C(=S)N2CCN(C(=O)OC(C)(C)C)CC2)cc1OC1CCCC1 [Compound 9c, tert-Butyl 4-(3-(cyclopentyloxy)-4-methoxyphenylcarbonothioyl)piperazine-1-carboxylate]	–	–	–	–	–	–	–	40.6 ± 2.8 µM	36.3 ± 2.5 µM	52.9 ± 2.7 µM	48.9 ± 2.3 µM	33.4 ± 2.6 µM	33.4 to 52.9 µM	191 to 193 °C	–	–
COc1ccc(C(=S)Nc2ccc(F)cc2)cc1OC1CCCC1 [Compound 10, 3-(Cyclopentyloxy)-N-(4-fluorophenyl)-4-methoxybenzothioamide]	–	–	–	–	–	–	–	52.5 ± 3.7 µM	49.9 ± 3.5 µM	79.1 ± 3.8 µM	64.1 ± 3.1 µM	47.3 ± 2.9 µM	47.3 to 79.1 µM	194 to 196 °C	–	–
COc1ccc(C(=S)N(C)C)cc1OC1CCCC1 [Compound 11, 3-(Cyclopentyloxy)-4-methoxy-N,N-dimethylbenzothioamide]	–	–	–	–	–	–	–	90.9 ± 4.9 µM	91.2 ± 4.8 µM	96.8 ± 5.5 µM	94.3 ± 4.7 µM	88.6 ± 5 µM	88.6 to 96.8 µM	189 to 191 °C	–	–
COc1ccc(-c2nc3n(c(=O)c2C#N)C(=O)CS3)cc1OC1CCCC1 [Compound 14, 7-(3-(Cyclopentyloxy)-4-methoxyphenyl)-3,5-dioxo-2,3-dihydro-5H-thiazolo[3,2-a]pyrimidine-6-carbonitrile]	–	–	–	–	–	–	–	12.5 ± 1.2 µM	20.1 ± 1.8 µM	34.9 ± 1.9 µM	9.62 ± 0.9 µM	15.3 ± 1.3 µM	5.86 to 20.1 µM	265 to 267 °C	–	–
